In ChEMBL document CHEMBL5233239, “Matrix metalloproteinase-9 (MMP-9) and its inhibitors in cancer: A minireview” (Eur J Med Chem, 2020):

How the values were obtained:
[1] = molecular target: T1, Matrix metalloproteinase-9 (Homo sapiens, UniProt P14780); assay: Inhibition of MMP-9 (unknown origin)
[2] = molecular target: T2, 72 kDa type IV collagenase (Homo sapiens, UniProt P08253)
Target sequence in this assay (P08253 whole entry): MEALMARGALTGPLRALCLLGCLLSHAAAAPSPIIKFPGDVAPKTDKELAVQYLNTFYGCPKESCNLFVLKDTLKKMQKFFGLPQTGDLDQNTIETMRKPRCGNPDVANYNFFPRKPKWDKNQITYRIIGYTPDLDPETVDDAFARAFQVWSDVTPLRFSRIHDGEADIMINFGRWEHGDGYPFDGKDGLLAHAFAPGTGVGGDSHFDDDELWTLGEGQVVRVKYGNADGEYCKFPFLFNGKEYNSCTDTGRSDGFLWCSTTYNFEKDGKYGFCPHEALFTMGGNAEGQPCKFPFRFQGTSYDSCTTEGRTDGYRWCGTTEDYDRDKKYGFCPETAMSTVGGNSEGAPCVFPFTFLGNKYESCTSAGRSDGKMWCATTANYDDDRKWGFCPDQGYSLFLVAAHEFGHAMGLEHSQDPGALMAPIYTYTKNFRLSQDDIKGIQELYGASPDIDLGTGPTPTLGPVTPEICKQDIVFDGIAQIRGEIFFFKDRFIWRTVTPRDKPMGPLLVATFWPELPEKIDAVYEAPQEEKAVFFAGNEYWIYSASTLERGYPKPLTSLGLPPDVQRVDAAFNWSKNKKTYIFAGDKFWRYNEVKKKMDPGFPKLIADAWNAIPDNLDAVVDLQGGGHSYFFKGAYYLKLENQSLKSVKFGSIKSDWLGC

[3] = molecular target: T1, Matrix metalloproteinase-9; assay: Inhibition of MMP-9 (unknown origin) using Ac-Pro-Leu-Gly-SCH(CH2 CH(CH3)2)CO-Leu-Gly-OCH2CH3 as substrate preincubated of 0.5 hrs followed by substrate addition and measured after 3 hrs by fluorescence analysis
[4] = Cmax in mouse plasma at 200 mg/kg, po by HPLC analysis; format: ADME, organism-based; design: dose 200 mg/kg, route po
[5] = molecular target: T1, Matrix metalloproteinase-9; assay: Inhibition of MMP-9 (unknown origin) by fluorimetric assay
[6] = molecular target: T2, 72 kDa type IV collagenase; assay: Inhibition of MMP-2 (unknown origin) by fluorimetric assay
Target sequence in this assay (P08253 whole entry): as above

Interstitial collagenase [7] = molecular target: T3, Interstitial collagenase (Homo sapiens, UniProt P03956); assay: Inhibition of MMP-1 (unknown origin) by fluorimetric assay
T3 sequence (P03956 whole entry): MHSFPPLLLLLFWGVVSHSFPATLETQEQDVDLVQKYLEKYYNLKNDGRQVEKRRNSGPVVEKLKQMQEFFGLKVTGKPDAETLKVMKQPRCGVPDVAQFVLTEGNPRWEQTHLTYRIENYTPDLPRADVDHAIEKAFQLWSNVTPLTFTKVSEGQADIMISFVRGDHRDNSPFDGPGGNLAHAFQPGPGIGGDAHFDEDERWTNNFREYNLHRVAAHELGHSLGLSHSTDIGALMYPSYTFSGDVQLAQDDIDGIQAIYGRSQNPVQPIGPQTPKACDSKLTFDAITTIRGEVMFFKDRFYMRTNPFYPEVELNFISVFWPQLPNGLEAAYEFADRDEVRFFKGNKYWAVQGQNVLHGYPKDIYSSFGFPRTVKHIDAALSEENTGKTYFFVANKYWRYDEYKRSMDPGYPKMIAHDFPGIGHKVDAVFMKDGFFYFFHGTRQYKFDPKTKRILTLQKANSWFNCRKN

[8] = molecular target: T1, Matrix metalloproteinase-9; assay: Inhibition of human MMP9 using Dnp-Pro-Cha-Gly-Cys(Me)-His-Ala-Lys(Nma)-NH2 substrate by fluorimetric analysis
[9] = molecular target: T2, 72 kDa type IV collagenase; assay: Inhibition of human MMP2 using Dnp-Pro-Cha-Gly-Cys(Me)-His-Ala-Lys(Nma)-NH2 substrate by fluorimetric analysis
Target sequence in this assay (P08253 whole entry): as the sequence (P08253 whole entry) above

Interstitial collagenase [10] = molecular target: T3, Interstitial collagenase; assay: Inhibition of human MMP1 using Dnp-Pro-Cha-Gly-Cys(Me)-His-Ala-Lys(Nma)-NH2 substrate by fluorimetric analysis
Stromelysin-1 [11] = molecular target: T4, Stromelysin-1 (Homo sapiens, UniProt P08254); assay: Inhibition of human MMP3 using (7-methoxycoumarine-4-yl)-Arg-Pro-Lys-Pro-Tyr-Ala-Nva-Trp-Met-Lys(Dnp)-NH2 substrate by fluorimetric analysis
Target sequence in this assay (P08254 whole entry): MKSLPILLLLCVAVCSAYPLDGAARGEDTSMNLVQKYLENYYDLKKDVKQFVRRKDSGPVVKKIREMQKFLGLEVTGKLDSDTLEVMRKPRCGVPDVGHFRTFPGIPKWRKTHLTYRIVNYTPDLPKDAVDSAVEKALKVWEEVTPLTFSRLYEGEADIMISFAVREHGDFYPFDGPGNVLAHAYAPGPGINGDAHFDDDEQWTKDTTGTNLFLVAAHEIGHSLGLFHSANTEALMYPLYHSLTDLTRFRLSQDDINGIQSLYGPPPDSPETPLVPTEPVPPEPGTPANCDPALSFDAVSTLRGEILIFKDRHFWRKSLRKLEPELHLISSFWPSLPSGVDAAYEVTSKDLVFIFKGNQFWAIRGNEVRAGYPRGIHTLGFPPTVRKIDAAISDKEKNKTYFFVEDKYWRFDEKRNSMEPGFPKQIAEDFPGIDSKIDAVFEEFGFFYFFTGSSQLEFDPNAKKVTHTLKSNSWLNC

Collagenase 3 [12] = molecular target: T5, Collagenase 3 (Homo sapiens, UniProt P45452); assay: Inhibition of human MMP13 using Dnp-Pro-Cha-Gly-Cys(Me)-His-Ala-Lys(Nma)-NH2 substrate by fluorimetric analysis
Interstitial collagenase [13] = molecular target: T3, Interstitial collagenase; assay: Inhibition of MMP-1 (unknown origin)
Collagenase 3 [14] = molecular target: T5, Collagenase 3
Description: Inhibition of MMP-13 (unknown origin)

[15] = molecular target: Disintegrin and metalloproteinase domain-containing protein 17 (Homo sapiens, UniProt P78536); assay: Inhibition of TACE (unknown origin)
[16] = molecular target: T2, 72 kDa type IV collagenase; assay: Inhibition of MMP-2 (unknown origin) at 20 uM by fluorometric assay
Target sequence in this assay (P08253 110-660 limits assumed): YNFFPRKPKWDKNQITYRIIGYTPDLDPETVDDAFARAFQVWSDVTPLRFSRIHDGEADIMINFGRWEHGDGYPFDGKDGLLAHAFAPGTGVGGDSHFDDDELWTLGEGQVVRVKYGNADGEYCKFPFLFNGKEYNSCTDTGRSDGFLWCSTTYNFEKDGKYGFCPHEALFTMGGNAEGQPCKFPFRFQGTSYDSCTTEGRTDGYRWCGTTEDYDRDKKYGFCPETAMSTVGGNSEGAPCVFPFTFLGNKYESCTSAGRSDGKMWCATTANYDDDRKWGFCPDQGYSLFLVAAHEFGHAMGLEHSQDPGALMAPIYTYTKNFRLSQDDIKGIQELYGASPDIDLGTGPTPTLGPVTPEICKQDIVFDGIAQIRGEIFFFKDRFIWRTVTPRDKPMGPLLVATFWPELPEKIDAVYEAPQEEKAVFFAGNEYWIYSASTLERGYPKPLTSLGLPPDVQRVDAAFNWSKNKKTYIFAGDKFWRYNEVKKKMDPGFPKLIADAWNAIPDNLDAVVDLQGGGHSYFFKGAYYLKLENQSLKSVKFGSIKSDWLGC

Stromelysin-1 [17] = molecular target: T4, Stromelysin-1; assay: Inhibition of MMP-3 (unknown origin) at 20 uM by fluorometric assay
Target sequence in this assay (P08254 100-477 limits assumed): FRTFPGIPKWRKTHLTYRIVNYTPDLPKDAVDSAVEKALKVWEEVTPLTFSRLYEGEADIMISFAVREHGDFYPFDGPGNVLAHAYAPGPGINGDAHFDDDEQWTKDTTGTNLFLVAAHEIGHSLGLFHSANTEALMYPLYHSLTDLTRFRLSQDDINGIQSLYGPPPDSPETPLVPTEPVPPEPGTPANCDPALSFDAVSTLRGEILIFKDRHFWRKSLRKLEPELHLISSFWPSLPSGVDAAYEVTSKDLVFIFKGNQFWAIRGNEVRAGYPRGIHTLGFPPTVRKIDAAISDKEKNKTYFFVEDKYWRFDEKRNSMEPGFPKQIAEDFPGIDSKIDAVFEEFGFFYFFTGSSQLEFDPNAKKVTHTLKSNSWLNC

[18] = molecular target: T6, Matrilysin (Homo sapiens) (UniProt P09237); assay: Inhibition of MMP-7 (unknown origin) at 20 uM by fluorometric assay
T6 sequence (whole entry): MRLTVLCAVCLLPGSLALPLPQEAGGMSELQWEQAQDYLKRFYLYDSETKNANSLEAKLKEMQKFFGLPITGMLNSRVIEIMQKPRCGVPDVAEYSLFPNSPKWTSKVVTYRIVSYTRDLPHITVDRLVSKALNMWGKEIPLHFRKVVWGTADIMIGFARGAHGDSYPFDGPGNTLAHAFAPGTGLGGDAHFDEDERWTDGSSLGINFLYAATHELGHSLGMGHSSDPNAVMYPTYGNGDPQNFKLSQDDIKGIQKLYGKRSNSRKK

Neutrophil collagenase = Neutrophil collagenase (Homo sapiens, UniProt P22894); assay: Inhibition of MMP-8 (unknown origin) at 20 uM by fluorometric assay
[19] = molecular target: T1, Matrix metalloproteinase-9; assay: Inhibition of MMP-9 (unknown origin) at 20 uM by fluorometric assay
[20] = molecular target: Macrophage metalloelastase (Homo sapiens) (UniProt P39900); assay: Inhibition of MMP-12 (unknown origin) at 20 uM by fluorometric assay
[21] = molecular target: Matrix metalloproteinase-14 (Homo sapiens) (UniProt P50281); assay: Inhibition of MMP-14 (unknown origin) at 20 uM by fluorometric assay
[22] = molecular target: T2, 72 kDa type IV collagenase; assay: Inhibition of human MMP2 incubated for 1 hrs followed by chromogenic substrate addition and measured after 30 mins by microplate photometer analysis
Target sequence in this assay (P08253 whole entry): as the sequence (P08253 whole entry) above

[23] = molecular target: T1, Matrix metalloproteinase-9; assay: Inhibition of human MMP9 incubated for 1 hrs followed by chromogenic substrate addition and measured after 30 mins by microplate photometer analysis

T1 sequence (P14780 whole entry): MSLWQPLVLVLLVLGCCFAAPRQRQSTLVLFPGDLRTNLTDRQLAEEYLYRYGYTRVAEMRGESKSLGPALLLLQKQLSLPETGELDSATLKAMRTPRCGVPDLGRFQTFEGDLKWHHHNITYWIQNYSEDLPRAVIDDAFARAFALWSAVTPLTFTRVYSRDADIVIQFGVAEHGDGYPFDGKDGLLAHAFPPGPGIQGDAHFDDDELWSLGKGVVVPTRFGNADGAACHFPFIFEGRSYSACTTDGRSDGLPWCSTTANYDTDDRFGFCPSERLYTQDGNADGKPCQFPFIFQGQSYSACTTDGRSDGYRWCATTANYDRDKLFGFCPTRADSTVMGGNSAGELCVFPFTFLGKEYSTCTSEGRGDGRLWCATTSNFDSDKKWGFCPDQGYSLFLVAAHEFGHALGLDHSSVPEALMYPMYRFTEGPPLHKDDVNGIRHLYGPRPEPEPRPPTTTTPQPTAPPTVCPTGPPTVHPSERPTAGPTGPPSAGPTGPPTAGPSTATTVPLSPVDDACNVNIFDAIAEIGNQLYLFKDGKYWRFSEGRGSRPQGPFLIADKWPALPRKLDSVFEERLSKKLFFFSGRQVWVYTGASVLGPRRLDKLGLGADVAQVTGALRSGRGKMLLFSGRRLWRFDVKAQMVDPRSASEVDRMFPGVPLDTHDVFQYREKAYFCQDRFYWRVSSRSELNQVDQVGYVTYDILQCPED
Sequence of Disintegrin and metalloproteinase domain-containing protein 17 (P78536 whole entry, the tested form may be a part): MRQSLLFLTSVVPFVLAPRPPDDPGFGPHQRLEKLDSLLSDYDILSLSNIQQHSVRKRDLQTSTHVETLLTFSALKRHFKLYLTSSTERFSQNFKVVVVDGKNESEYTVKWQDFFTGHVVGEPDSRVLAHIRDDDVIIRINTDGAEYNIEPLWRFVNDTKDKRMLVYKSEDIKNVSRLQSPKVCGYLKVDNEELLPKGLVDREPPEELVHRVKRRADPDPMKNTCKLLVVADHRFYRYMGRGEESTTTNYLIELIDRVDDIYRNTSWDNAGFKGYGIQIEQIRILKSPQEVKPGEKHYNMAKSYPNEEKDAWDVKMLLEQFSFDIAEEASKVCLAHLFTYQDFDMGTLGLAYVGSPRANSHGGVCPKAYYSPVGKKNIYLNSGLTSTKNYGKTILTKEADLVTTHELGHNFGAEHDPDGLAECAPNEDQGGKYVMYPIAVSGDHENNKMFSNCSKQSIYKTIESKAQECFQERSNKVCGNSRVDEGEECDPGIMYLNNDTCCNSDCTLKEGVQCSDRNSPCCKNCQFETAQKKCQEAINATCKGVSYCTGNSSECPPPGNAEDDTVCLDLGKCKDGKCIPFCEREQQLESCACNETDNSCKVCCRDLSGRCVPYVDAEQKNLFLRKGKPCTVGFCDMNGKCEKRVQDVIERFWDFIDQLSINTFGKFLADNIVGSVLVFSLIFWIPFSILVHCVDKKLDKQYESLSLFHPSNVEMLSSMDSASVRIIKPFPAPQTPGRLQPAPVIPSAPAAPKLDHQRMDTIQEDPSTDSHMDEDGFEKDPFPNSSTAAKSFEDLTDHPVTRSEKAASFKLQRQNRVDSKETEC
Sequence of Macrophage metalloelastase (Homo sapiens) (P39900 106-470 limits assumed): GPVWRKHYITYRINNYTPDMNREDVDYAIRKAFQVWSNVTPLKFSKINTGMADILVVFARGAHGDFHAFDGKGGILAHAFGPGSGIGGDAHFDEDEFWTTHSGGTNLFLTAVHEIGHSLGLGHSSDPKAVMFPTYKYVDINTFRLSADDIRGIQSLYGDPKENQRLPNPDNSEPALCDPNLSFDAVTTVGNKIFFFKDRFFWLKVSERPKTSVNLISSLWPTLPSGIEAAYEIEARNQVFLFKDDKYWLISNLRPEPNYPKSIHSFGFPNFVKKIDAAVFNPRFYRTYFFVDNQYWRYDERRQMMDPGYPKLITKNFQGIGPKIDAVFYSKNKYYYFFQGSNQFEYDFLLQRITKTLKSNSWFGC
Sequence of Neutrophil collagenase (P22894 101-467 limits assumed): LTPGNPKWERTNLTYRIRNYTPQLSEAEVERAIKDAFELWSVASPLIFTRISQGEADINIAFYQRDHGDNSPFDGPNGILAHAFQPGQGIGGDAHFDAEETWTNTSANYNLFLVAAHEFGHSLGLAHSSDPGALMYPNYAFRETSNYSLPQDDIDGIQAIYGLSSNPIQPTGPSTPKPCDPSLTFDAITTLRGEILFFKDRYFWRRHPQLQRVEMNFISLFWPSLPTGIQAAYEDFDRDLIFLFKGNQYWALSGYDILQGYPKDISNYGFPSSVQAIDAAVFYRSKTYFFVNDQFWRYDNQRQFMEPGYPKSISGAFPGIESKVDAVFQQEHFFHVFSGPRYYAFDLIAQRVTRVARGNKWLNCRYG

With `CN(C)c1ccc(-c2cn(-c3ccc(S(=O)(=O)NC(Cc4ccccc4)C(=O)NO)cc3)nn2)cc1` (stereo not drawn) the IC50 [1] was 1.06 nM and the IC50 [2] was 0.32 nM.

In the case of `Cc1ccc(C#Cc2ccc(S(=O)(=O)N[C@H](C(=O)O)C(C)C)s2)cc1`, the IC50 [3] is reported as 14 nM and the Cmax [4] is reported as 284 µM.

With `CC1(C)NC(=O)N(C[C@H](CS(=O)(=O)c2ccc(-c3ccc(OC(F)(F)F)cc3)cc2)N(O)C=O)C1=O` the IC50 [5] was 0.34 nM, the IC50 [6] was 0.86 nM and the IC50 (Interstitial collagenase [7]) was 82 nM.

`O=CN(O)C(CS(=O)(=O)c1ccc(Oc2ccc(OC(F)(F)F)cc2)cc1)[C@@H](O)CO` (stereo partly drawn) gave an IC50 [5] of 0.092 nM and an IC50 [6] of 0.36 nM.

For `COc1ccc(S(=O)(=O)N2CC(C)(C)C(CCSCc3ccccc3)C2C(=O)NO)cc1` (stereo not drawn), the IC50 [8] was 0.9 nM, the IC50 [9] was 1.64 nM and the IC50 (Interstitial collagenase [10]) was 198 nM. It also gave an IC50 (Stromelysin-1 [11]) of 6.7 nM and an IC50 (Collagenase 3 [12]) of 5.5 nM.

Compound `COc1ccc(S(=O)(=O)N(C)c2c(C)cc(Cc3ccc(CN(C)C)cc3)cc2C(=O)NO)cc1` has an IC50 [1] of 3 nM, an IC50 (Interstitial collagenase [13]) of 213 nM and an IC50 (Collagenase 3 [14]) of 11 nM. For the same compound, the IC50 [15] was 243 nM.

`FC(F)(F)c1ccc(N2CC2Cn2cc(CCCCCCc3cn(CC4CN4c4ccc(C(F)(F)F)cc4)nn3)nn2)cc1` (stereo not drawn) showed an inhibition [16] of 80.5%, an inhibition (Stromelysin-1 [17]) of 27.1% and an inhibition [18] of 27.5%. For the same compound, the inhibition (Neutrophil collagenase) was 34.9%, the inhibition [19] was 29.6% and the inhibition [20] was 26%. For the same compound, the inhibition [21] was 22.3%.

With `COc1ccc(S(=O)(=O)N(c2c(C)cc(-c3cccc(C(F)(F)F)c3)cc2C(=O)NO)N(C)C)cc1` the IC50 [1] was 2 nM, the IC50 (Interstitial collagenase [13]) was 74 nM and the IC50 (Collagenase 3 [14]) was 39 nM. The IC50 [15] was 633 nM.

`COc1ccc(S(=O)(=O)N(Cc2ccccn2)c2c(C)cc(-c3cccc(C(F)(F)F)c3)cc2C(=O)NO)cc1` gave an IC50 [1] of 1 nM and an IC50 (Collagenase 3 [14]) of 2 nM.

`O=C(O)CC[C@@H](NC(=O)Cc1ccc(Br)cc1)C(=O)NCc1ccc([N+](=O)[O-])cc1` showed an IC50 [22] of 6400 nM and an IC50 [23] of 4830 nM.
